# Results taken from PubChem BioAssay AID2060611 (Molecular Pharmacology Branch, DTP, NCI, 2025).
# Several values for one entry are separate records, joined by “and”; a condition that tells them apart may be missing. Identical values can stand only once.
# Tested on: 628569-122-R-J1-PDC complex spheroid viability
# Experiment: Anticancer human tumor 628569-122-R-J1-PDC patient-derived head and neck squamous carcinoma cell line growth inhibition [CLK]
# Conditions: for viability, T/C: stronger effect = lower value
# Excerpt: A high-throughput screen of multi-cell type tumor spheroids was designed to identify active combinations of […] and targeted small molecules. Complex spheroids include a stromal component modeled by human endothelial cells (HUVEC) and fibroblasts modeled by human mesenchymal stem cells (MSCs). The concentration ranges selected for each drug and investigational agent were based upon clinically achievable concentrations if the clinical Cmax of the agent was known.
# Compounds. The drugs and investigational agents: cirtuvivint (SM08502; NSC835563), CC-671 (NSC850746), vemurafenib (NSC761431), tapotoclax (NSC804041), sotorasib (NSC818433), adagrasib (NSC831453), MRTX-1133 (NSC836407), BAY2416964 (NSC825713), copanlisib (NSC816437), inavolisib (NSC800729), abemaciclib (NSC768073), osimertinib (NSC779217), entinostat (NSC756642), eltanexor (KPT-8602, NSC794443), venetoclax (NSC766270), ceralasertib (NSC777638), bortezomib (NSC756655), olaparib (NSC753686), talazoparib (NSC767125), alisertib (NSC759677), peposertib (NSC802822), gemcitabine (NSC613327), 5-fluorouracil (NSC19893), SN-38 (NSC673596), oxaliplatin (NSC266046), paclitaxel (NSC125973), and doxorubicin (NSC123127), were obtained from the National Cancer Institute (NCI) Developmental Therapeutics Program Chemical Repository. The FDA-approved anticancer drug set is available from the Developmental Therapeutics Program at https://dtp.cancer.gov/organization/dscb/obtaining/available plates.htm. […] The stock solutions were prepared in dimethyl sulfoxide (DMSO, Sigma-Aldrich, St. Louis, MO, cat. D2650), except for the platinum complexes which were prepared in saline (Quality Biological, Gaithersburg, MD, cat. 114-055-101), at 800-fold the tested concentration and stored at -70 degrees C prior to their use. All drugs and investigational agents were tested over a range starting from a high concentration at or near the clinical Cmax and decreasing in half-log increments. If the clinical Cmax for an agent had not been determined, the highest concentration tested was 10 microM.
# Cell Culture. All cells were maintained in an incubator at 37 degrees C and 5% CO2 with 95% humidity. The PDC lines were cultured according to standard operating procedures established by the NCI PDMR. Briefly, all PDCs were thawed and cultured in Matrigel-coated flasks prepared with a working solution of 1X Ham's F-12 nutrient mix, without supplementation (Invitrogen, Waltham, MA, cat. 11765054), 100 U/mL penicillin-streptomycin (Invitrogen, cat. 15140122), and 2.5% Matrigel (Corning Inc., Corning, NY, cat. 354248) for the first three passages. The 947758-054-R-J2-PDC line was cultured in 6B/Colon 1A media, which includes advanced DMEM/F-12 (Thermo Fisher Scientific, cat. 12634028), 10 mM HEPES (Thermo Fisher Scientific, cat. 15630080), 1X GlutaMAX supplement (Thermo Fisher Scientific, cat. 35050061), 0.1 mg/mL primocin (InvivoGen, cat. ant-pm-2), 10% defined fetal bovine serum, heat inactivated (HyClone Laboratories Inc., cat. SH30070.03HI), 1.25 mM N-Acetyl-L-cysteine (Sigma-Aldrich, cat. A9165), 10 mM nicotinamide (Sigma-Aldrich, cat. N0636), 1X B-27 supplement (Thermo Fisher Scientific, cat. 17504044), 1X N-2 supplement (Thermo Fisher Scientific, cat. 17502048), and 10 microM Y-27632 dihydrochloride (Tocris Bioscience, cat. 1254). The 876862-298-R-J1-PDC was cultured in 6E media, which includes all 6B/Colon 1A media components plus 50% L-WRN conditioned media (ATCC, cat. CRL-3276), 50 ng/mL recombinant human EGF recombinant protein (hEGF; Thermo Fisher Scientific, cat. PHG0311), 10 ng/mL recombinant human fibroblast growth factor 10 (hGFG-10; PeproTech, cat. 100-26), 1 ng/mL recombinant human fibroblast growth factor 2 (hFGF-2; PeproTech, cat. 100-18B), and 1 µM prostaglandin E2 (PGE2; Tocris, cat. 2296). The 227483-062-R1-J1-PDC line was cultured in Panc media, containing all 6E components except hFGF-2, with the addition of 500 nM SB-431542 (Selleckchem, cat. S1067) and 10 nM gastrin (Tocris, cat. 3006). […]
# [1] = curve of first compound, second compound 0.0316 µM
# [2] = curve of first compound, second compound 0.1 µM
# [3] = curve of first compound, second compound 0.316 µM
# [4] = curve of first compound, second compound 1 µM
# [5] = curve of first compound, second compound 3.16 µM
# [6] = curve of first compound, second compound 10 µM
# [7] = second compound 0.0316 µM, first compound 0.0316 µM
# [8] = second compound 0.0316 µM, first compound 0.1 µM
# [9] = second compound 0.0316 µM, first compound 0.316 µM
# [10] = second compound 0.0316 µM, first compound 1 µM
# [11] = second compound 0.1 µM, first compound 0.0316 µM
# [12] = second compound 0.1 µM, first compound 0.1 µM
# [13] = second compound 0.1 µM, first compound 0.316 µM
# [14] = second compound 0.1 µM, first compound 1 µM
# [15] = second compound 0.316 µM, first compound 0.0316 µM
# [16] = second compound 0.316 µM, first compound 0.1 µM
# [17] = second compound 0.316 µM, first compound 0.316 µM
# [18] = second compound 0.316 µM, first compound 1 µM
# [19] = second compound 1 µM, first compound 0.0316 µM
# [20] = second compound 1 µM, first compound 0.1 µM
# [21] = second compound 1 µM, first compound 0.316 µM
# [22] = second compound 1 µM, first compound 1 µM
# [23] = second compound 3.16 µM, first compound 0.0316 µM
# [24] = second compound 3.16 µM, first compound 0.1 µM
# [25] = second compound 3.16 µM, first compound 0.316 µM
# [26] = second compound 3.16 µM, first compound 1 µM
# [27] = second compound 10 µM, first compound 0.0316 µM
# [28] = second compound 10 µM, first compound 0.1 µM
# [29] = second compound 10 µM, first compound 0.316 µM
# [30] = second compound 10 µM, first compound 1 µM
# 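Also: spheroids exposed to agents for seven days before readout.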
# 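For viability, T/C in this document: 100% = DMSO vehicle control viability.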
structure (smiles),measurement,setting,value
CN1CCN(c2cc(C(=O)Nc3cc4cc(-c5cnn(C)c5)ccc4cn3)ccn2)CC1,"viability, T/C",compound 0.0316 µM,104% [middle of 12 runs]
same,"viability, T/C",compound 0.1 µM,69.2% [middle of 12 runs]
same,"viability, T/C",compound 0.316 µM,35.6% [middle of 12 runs]
same,"viability, T/C",compound 1 µM,5.28% [middle of 12 runs]
same,"viability, T/C",compound 3.16 µM,7.69% [middle of 12 runs]
same,"viability, T/C",compound 10 µM,6.81% [middle of 12 runs]
same,IC50,"compound alone, run of 09/18/2023",187 nM [middle of 12 runs]
O=c1[nH]cc(F)c(=O)[nH]1 + CN1CCN(c2cc(C(=O)Nc3cc4cc(-c5cnn(C)c5)ccc4cn3)ccn2)CC1,IC50,[1],> 10000 nM
same,IC50,[2],> 10000 nM
same,IC50,[3],< 31.6 nM
same,IC50,[4],< 31.6 nM
same,IC50,[5],< 31.6 nM
same,IC50,[6],< 31.6 nM
same,"viability, T/C",[7],84.2%
same,"viability, T/C",[8],97.8%
same,"viability, T/C",[9],93.7%
same,"viability, T/C",[10],102%
same,"viability, T/C","second compound 0.0316 µM, first compound 3.16 µM",88.8%
same,"viability, T/C","second compound 0.0316 µM, first compound 10 µM",69.3%
same,"viability, T/C",[11],64.1%
same,"viability, T/C",[12],69.9%
same,"viability, T/C",[13],70.5%
same,"viability, T/C",[14],71.6%
same,"viability, T/C","second compound 0.1 µM, first compound 3.16 µM",64.8%
same,"viability, T/C","second compound 0.1 µM, first compound 10 µM",54.7%
same,"viability, T/C",[15],35.7%
same,"viability, T/C",[16],30.7%
same,"viability, T/C",[17],37.5%
same,"viability, T/C",[18],44.7%
same,"viability, T/C","second compound 0.316 µM, first compound 3.16 µM",38.3%
same,"viability, T/C","second compound 0.316 µM, first compound 10 µM",29.8%
same,"viability, T/C",[19],12.8%
same,"viability, T/C",[20],6.16%
same,"viability, T/C",[21],6.71%
same,"viability, T/C",[22],8.95%
same,"viability, T/C","second compound 1 µM, first compound 3.16 µM",7.13%
same,"viability, T/C","second compound 1 µM, first compound 10 µM",5.19%
same,"viability, T/C",[23],9.61%
same,"viability, T/C",[24],7.33%
same,"viability, T/C",[25],9.99%
same,"viability, T/C",[26],8.76%
same,"viability, T/C","second compound 3.16 µM, first compound 3.16 µM",12%
same,"viability, T/C","second compound 3.16 µM, first compound 10 µM",4.06%
same,"viability, T/C",[27],11%
same,"viability, T/C",[28],2.54%
same,"viability, T/C",[29],4.42%
same,"viability, T/C",[30],2.63%
same,"viability, T/C","second compound 10 µM, first compound 3.16 µM",2.63%
same,"viability, T/C","second compound 10 µM, first compound 10 µM",3.59%
CC(C)CC(NC(=O)C(Cc1ccccc1)NC(=O)c1cnccn1)B(O)O (stereo not given),"viability, T/C",compound 0.000949 µM,86.3% and 91.7%
same,"viability, T/C",compound 0.003 µM,68% and 73.5%
same,"viability, T/C",compound 0.00949 µM,16.2% and 14.8%
same,"viability, T/C",compound 0.03 µM,8.01% and 3.1%
same,"viability, T/C",compound 0.0949 µM,7.3% and 7.41%
same,"viability, T/C",compound 0.3 µM,6.04% and 11.3%
same,IC50,curve of compound,4.47 nM and 4.75 nM
CCc1c2c(nc3ccc(O)cc13)-c1cc3c(c(=O)n1C2)COC(=O)[C@]3(O)CC + CN1CCN(c2cc(C(=O)Nc3cc4cc(-c5cnn(C)c5)ccc4cn3)ccn2)CC1,IC50,[1],90.2 nM
same,IC50,[2],107 nM
same,IC50,[3],< 3.16 nM
same,IC50,[4],< 3.16 nM
same,IC50,[5],< 3.16 nM
same,IC50,[6],< 3.16 nM
same,"viability, T/C","second compound 0.0316 µM, first compound 0.00316 µM",61.5%
same,"viability, T/C","second compound 0.0316 µM, first compound 0.01 µM",53.1%
same,"viability, T/C",[7],50.2%
same,"viability, T/C",[8],52.2%
same,"viability, T/C",[9],35.8%
same,"viability, T/C",[10],9.26%
same,"viability, T/C","second compound 0.1 µM, first compound 0.00316 µM",50.9%
same,"viability, T/C","second compound 0.1 µM, first compound 0.01 µM",49.9%
same,"viability, T/C",[11],47.9%
same,"viability, T/C",[12],58.3%
same,"viability, T/C",[13],23.7%
same,"viability, T/C",[14],5.24%
same,"viability, T/C","second compound 0.316 µM, first compound 0.00316 µM",40.4%
same,"viability, T/C","second compound 0.316 µM, first compound 0.01 µM",36.4%
same,"viability, T/C",[15],15%
same,"viability, T/C",[16],9.88%
same,"viability, T/C",[17],4.62%
same,"viability, T/C",[18],6.11%
same,"viability, T/C","second compound 1 µM, first compound 0.00316 µM",5.48%
same,"viability, T/C","second compound 1 µM, first compound 0.01 µM",4.65%
same,"viability, T/C",[19],8.79%
same,"viability, T/C",[20],7.58%
same,"viability, T/C",[21],5.31%
same,"viability, T/C",[22],2.58%
same,"viability, T/C","second compound 3.16 µM, first compound 0.00316 µM",9.55%
same,"viability, T/C","second compound 3.16 µM, first compound 0.01 µM",6.32%
same,"viability, T/C",[23],5.67%
same,"viability, T/C",[24],8.5%
same,"viability, T/C",[25],4.73%
same,"viability, T/C",[26],2.6%
same,"viability, T/C","second compound 10 µM, first compound 0.00316 µM",1.57%
same,"viability, T/C","second compound 10 µM, first compound 0.01 µM",2.38%
same,"viability, T/C",[27],4%
same,"viability, T/C",[28],4.91%
same,"viability, T/C",[29],3.1%
same,"viability, T/C",[30],0.67%
COc1cccc2c1C(=O)c1c(O)c3c(c(O)c1C2=O)CC(O)(C(=O)CO)CC3OC1CC(N)C(O)C(C)O1 (stereo not given),"viability, T/C",compound 0.0316 µM,79.4% and 65.2%
same,"viability, T/C",compound 0.1 µM,51.3% and 43.7%
same,"viability, T/C",compound 0.316 µM,107% and 88.3%
same,"viability, T/C",compound 1 µM,31.9% and 12.3%
same,"viability, T/C",compound 3.16 µM,12.3% and 14.2%
same,"viability, T/C",compound 10 µM,4.08% and 10.9%
same,IC50,curve of compound,644 nM and 445 nM
